The values that follow come from ChEMBL document CHEMBL2057163, “Pyridofuran substituted pyrimidine derivatives as HCV replication (replicase) inhibitors” (Bioorg Med Chem Lett, 2012).

Data set [1] has as its system Hepatitis C virus. The experiment in a line: Antiviral activity against Hepatitis C virus 1b con1 infected in human hepatoma cells assessed as decrease in replicon RNA level after 3 days by RT-PCR analysis. The data set is classed as functional, organism-based, Hepacivirus hominis. The following applies: Con1, 72 h. A general note: A replicon is a self-replicating genome or part of one, used to study replication in cells.

Data set [2] is described as follows: Cytotoxicity against human hepatoma cells after 3 days by MTS assay. The data set is classed as cell-based. In general terms: Tetrazolium assays rely on reduction of a dye to a coloured formazan, in cell work by metabolically active cells.
Data set [3] in a line: Cytotoxicity against human hepatoma cells assessed as decrease in GAPDH RNA level after 3 days by RT-PCR analysis. Type of data set: cell-based.
Data set [4] in a line: Selectivity ratio of CC50 for human hepatoma cells by MTS assay to EC50 for Hepatitis C virus 1b con1. The data set is classed as ADME. The note with it: read-out: Ratio CC50/EC50.
Data set [5] is described as follows: AUC (0 to 6 hrs) in rat at 10 mg/kg, po. Type of data set: ADME, organism-based. Set-up: time < 6 hr, dose 10 mg/kg, route oral. The note with it: plasma.
The test system of data set [6] is Liver. The experiment in a line: Drug uptake in rat liver assessed per gram of tissue at 10 mg/kg, po measured at 6 hrs. Set-up: dose 10 mg/kg, route oral. The note with it: in vivo. The data set is classed as ADME, organism-based.
The nature of data set [7]: Cytotoxicity against human hepatoma cells assessed as inhibition of [14C]thymidine incorporation after 3 days by scintillation proximity assay. Type of data set: cell-based. A general note: Incorporation of labelled thymidine or its analogues reports DNA synthesis.
Data set [8] in a line: Oral bioavailability in rat at 10 mg/kg. The note with it: in vivo. Type of data set: ADME, organism-based.
A short description of data set [9]: Half life in rat at 10 mg/kg, po. Type of data set: ADME, organism-based. The arrangement: dose 10 mg/kg, route oral. The note with it: in vivo.
Data set [10] is described as follows: Clearance in rat at 10 mg/kg, po. Type of data set: ADME, organism-based. The arrangement: dose 10 mg/kg, route oral. The note with it: in vivo.
Data set [11] in a line: AUC in monkey at 3 mg/kg, po. The data set is classed as ADME, organism-based, Macaca mulatta. The arrangement: dose 3 mg/kg, route oral. The note with it: rhesus monkey, plasma.
A short description of data set [12]: Oral bioavailability in monkey at 3 mg/kg. Type of data set: ADME, organism-based, Macaca mulatta. The following applies: rhesus monkey, in vivo.
Data set [13] is described as follows: Half life in monkey at 3 mg/kg, po. The data set is classed as ADME, organism-based, Macaca mulatta. Set-up: dose 3 mg/kg, route oral. The following applies: rhesus monkey, in vivo.
The nature of data set [14]: Clearance in monkey at 3 mg/kg, po. Type of data set: ADME, organism-based, Macaca mulatta. Set-up: dose 3 mg/kg, route oral. The following applies: rhesus monkey, in vivo.
A short description of data set [15]: AUC in dog at 3 mg/kg, po. The data set is classed as ADME, organism-based, Canis lupus familiaris. The arrangement: dose 3 mg/kg, route oral. The following applies: plasma.
Data set [16] is described as follows: Oral bioavailability in dog at 3 mg/kg. Type of data set: ADME, organism-based, Canis lupus familiaris. The note with it: in vivo.
A short description of data set [17]: Half life in dog at 3 mg/kg, po. Type of data set: ADME, organism-based, Canis lupus familiaris. Set-up: dose 3 mg/kg, route oral. The following applies: in vivo.
Data set [18] is described as follows: Clearance in dog at 3 mg/kg, po. Type of data set: ADME, organism-based, Canis lupus familiaris. Set-up: dose 3 mg/kg, route oral. The following applies: in vivo.

Structures are written as SMILES. A value given as a limit tells only on which side of the number the result lay.

For orientation: EC50 means the concentration needed to bring the measured effect to its halfway point. Broadly, the CC50 is the concentration giving 50% cytotoxicity. Regarding `CNc1nc(Cl)c(-c2cc3cc(OC)nc(C)c3o2)c(N[C@@H]2C[C@H](CO)[C@@H](O)[C@H]2O)n1`, in data set [1], the EC50 came out at 0.02 µM. In addition, the figures for the cytotoxic concentration (CC50) at 72 h in [2] and in [3] were 25 µM and over 25 µM, respectively. The selectivity ratio in [4] was over 1000.

A word on the AUC(0-t): it is the area under the concentration-time curve up to a stated or last time point. For the compound `COc1cc(CNc2nc(C)c(-c3cc4cc(OC)nc(C)c4o3)c(N[C@@H]3C[C@H](CO)[C@@H](O)[C@H]3O)n2)cc(OC)c1.Cl`, the exposure AUC(0-t) at 6 h in [5] came to 0.5 µM·h. Besides, the liver concentration in data set [6] was determined as 178 ng/g.

For the compound `CCOc1cc2cc(-c3c(C)nc(NC)nc3N[C@@H]3C[C@H](CO)[C@@H](O)[C@H]3O)oc2c(C)n1.Cl`, the exposure AUC(0-t) at 6 h in data set [5] is 1.4 µM·h. Further, in data set [6], the liver concentration turned out to be 238 ng/g.

`CCOc1cc2cc(-c3c(C)nc(NCC(C)(C)C)nc3N[C@@H]3C[C@H](CO)[C@@H](O)[C@H]3O)oc2c(C)n1.Cl` came in with an exposure AUC(0-t) at 6 h in data set [5] of 6.8 µM·h. The same compound had a liver concentration in [6] of 2330 ng/g.

On to `CCOc1cc2cc(-c3c(C)nc(Nc4ccccc4)nc3N[C@@H]3C[C@H](CO)[C@@H](O)[C@H]3O)oc2c(C)n1.Cl`, for which the AUC(0-t) at 6 h in data set [5] is 18.5 µM·h. In data set [6], this compound came in with a liver concentration of 8980 ng/g.

As usually defined, the bioavailability is the share of a dose that reaches the circulation, judged against a reference dose that is usually intravenous. By half-life is commonly meant the time in which the quantity being followed falls by half. As usually defined, the CL/F is the apparent clearance, not corrected for the fraction that reaches the circulation. As a reminder, the AUC is concentration integrated over time. Consider `CCOc1cc2cc(-c3c(C)nc(NCC4CC4)nc3N[C@@H]3C[C@H](CO)[C@@H](O)[C@H]3O)oc2c(C)n1.Cl`, for which the exposure AUC(0-t) at 6 h in data set [5] was determined as 45.5 µM·h. This compound also showed a liver concentration in data set [6] of 10200 ng/g. In addition, the CC50 at 72 h in data set [7] was found to be 5 µM. In addition, the bioavailability in data set [8] stood at 97%; in data set [12] it was 100%; in data set [16] it was 15%. The half-life was 3.3 h in [9], 2.8 h in [13] and 2.1 h in data set [17]. In addition, the apparent clearance (CL/F) in [10] amounted to 8 mL/min/kg; in data set [14], 16 mL/min/kg; in data set [18], 9.5 mL/min/kg. The AUC in [11] was 10.2 µM·h; in [15] it was 1.6 µM·h.

For the compound `CCOc1cc2cc(-c3c(C)nc(NCCOC)nc3N[C@@H]3C[C@H](CO)[C@@H](O)[C@H]3O)oc2c(C)n1.Cl`, in data set [5], the AUC(0-t) at 6 h came out at 1.1 µM·h. This compound also had a liver concentration in data set [6] of 285 ng/g.

In [5], `CCOc1cc2cc(-c3c(C)nc(NCC(F)(F)F)nc3N[C@@H]3C[C@H](CO)[C@@H](O)[C@H]3O)oc2c(C)n1.Cl` displayed an area under the curve AUC(0-t) at 6 h of 8.9 µM·h. Also, the liver concentration in [6] is 3020 ng/g.

In the case of `CCOc1cc2cc(-c3c(C)nc(NCc4cc(OC)cc(OC)c4)nc3N[C@@H]3C[C@H](CO)[C@@H](O)[C@H]3O)oc2c(C)n1.Cl`, in data set [5], the AUC(0-t) at 6 h came out at 0.35 µM·h. In addition, the liver concentration in [6] was 238 ng/g.

For `CCc1cc2cc(-c3c(C)nc(NCC(F)(F)F)nc3N[C@@H]3C[C@H](CO)[C@@H](O)[C@H]3O)oc2cn1.Cl`, the AUC(0-t) at 6 h in data set [5] is 5.3 µM·h. Also, in data set [6], the liver concentration stood at 1730 ng/g. For the same compound, the CC50 at 72 h in data set [7] stood at 4 µM. Moreover, the bioavailability in data set [8] is 39%; in data set [12], 69%; in data set [16] it was 83%. Moreover, the half-life in data set [9] is 4.2 h; in [13] it was 7 h; in data set [17] it was 2.1 h. The figures for the apparent clearance (CL/F) in data set [10], in [14] and in data set [18] were 27 mL/min/kg, 15 mL/min/kg and 13 mL/min/kg, respectively. The area under the curve (AUC) stood at 5.2 µM·h in data set [11] and 6.4 µM·h in data set [15].
